Data published in patent publication US10117877B2, “Methods for fat reduction” (ALLERGAN, INC., priority 2015, dated 2018).
Entries after “also recorded” stand apart in the source; their conditions may differ.

Experiments:
[1] = tested on: Human Hair Dermal Papilla Cells (HHDPCs); assay: in vitro impedance (cell dielectric spectroscopy, CellKey) assay with human dermal papilla cells; assay type: cell-based; details: 10^−5 to 10^−12 M, impedance measured over 20 minutes, three independent experiments
Description: In this example, the lack of activity of the compound according to Formulas I and II is shown. In general, bimatoprost or the compound of Formula I was incubated at concentrations from 10^−5 and 10^−12 M with human dermal papilla cells in an in vitro impedance assay. […] Three independent experiments were performed.
More specifically, Human Hair Dermal Papilla Cells (HHDPCs) were expanded in specific culture medium (Promo Cell). After growing, the cells were seeded on 96 well plates coated with poly-L-Lysine at 20,000 cells per well. Cells were incubated during 24 hours at 37° C., 5% CO2. The day of the experiment, the culture medium was eliminated and replaced by HBSS containing BSA, 0.1% v/v. The cells were incubated in the CellKey system, for 4 hours at 28° C. before using to test compounds. Bimatoprost, the compound of Formula I, and/or the compound of Formula II were tested at […] from 10^−5 to 10^−12 M. The change in impedance was measured over 20 minutes. The background was subtracted and the impedance signal was normalized to the reference (bimatoprost) for the compound of Formula I and the compound of Formula II. The data presented is in triplicate and of three independent experiments.

female C57BL/6J mice = assay: in vivo mouse hair re-growth model, topical on shaved backs; details: 0.03% topical in minoxidil formulation; for full hair re-growth: shaved backs of mice
Description: In general, the compound of formula I and bimatoprost were prepared in the minoxidil formulation (50% Propylene Glycol; 30% Ethyl Alcohol) at a concentration of 0.03% for both compounds. Both compounds were given topically to shaved backs of mice (as described in Khidhir et al. FASEB J. 2013 27(2):557-567).
More specifically, female C57BL/6J mice (cat. no. 000664; Jackson Laboratory, Bar Harbor, Me., USA), aged 7 weeks, were randomly distributed into 4 groups to avoid any sibling bias and housed in groups of 5 with standard diet food pellets and water available ad libitum. […] From the next day, termed d 0 (zero), each mouse was treated topically with either the vehicle alone (ethanol:propylene glycol:water 3:5:2) or 0.03, 0.10, or 0.30% bimatoprost in the vehicle for d 14; 10 mice were used for each condition. The appropriate solution (70 μl) was rubbed gently into the dorsal skin of each mouse daily; new gloves were worn for each treatment type. Hair growth was recorded daily for each animal for d 42, and dorsal photographs were taken at d 0, 7, 14, 17, 21, 24, 28, 31, 35, and 42. […] To calculate mean values, the first day of growth was designated as d 43 for any mouse showing no hair growth signs by the last day. The day when the shaved dorsal area was fully covered with new black hairs, i.e., there was no pink skin remaining and no visible difference in hair length to the adjacent unshaved areas, was also recorded. This assay has been successfully used to evaluate compounds that cause hair growth (see, e.g., Khidhir et al. FASB J. 2013, 27, 557-567; Plikus et al. J. Invest. Dermatol. 2008, 128, 1071-1080).

[2] = tested on: prostamide receptors on human pre-adipocytes; assay: xCelligence impedance assay on pre-adipocytes; assay type: cell-based; details: for EC50: 20 min, human pre-adipocytes, 7 concentrations (10^−5 to 10^−9 M), signal measured for 20 minutes; for stimulation of prostamide receptors on human pre-adipocytes: xCelligence impedance assay; for potency relative to bimatoprost on human pre-adipocytes: comparison of the EC50 values of Table 1
Description: In this example it is shown that the compounds of Formulas I and II stimulates pre-adipocytes. In general, the compounds of Formulas I and II and bimatoprost were tested in the xCelligence impedance assay.
More specifically, pre-adipocytes were purchased from Lonza. Cells were expanded in Pre-adipocyte maintenance medium (Lonza, Switzerland). Once expanded, 10,000 cells per well were plated into xCelligence 96-well plates and incubated at 37° C. for 72 hours until the impedance signal normalized. Once normalized, media was switched to serum-free pre-adipocyte media (PDM-2) for 2 hours at 37° C. Once the signal stabilized for 30 minutes, compounds were added at 7 concentrations (10^−5 to 10^−9 M) and the signal measured for 20 minutes. The change in impedance was normalized to the background reading (buffer alone) and the EC50 calculations were determined using prism software.

[3] = body weight gain in rats on daily oral gavage for 26 weeks; assay type: in vivo, rats (Hsd: Sprague Dawley)
Description: In this example it is shown that the compound of Formula I when administration orally daily results in reduction in weight gain and lower mean body weights. In general males rats (n=17-20) and female rats (n=17-20) were administered orally (by gavage) daily for 6 months at the doses indicated below.
More specifically, male and female rats (Hsd: Sprague Dawley) were assigned to four groups and administered test article formulations (0.03, 0.3, or 5 mg/kg/day compound of Formula I) or vehicle control article (0 mg/mL [0%] compound of Formula I [placebo] containing 3% hydroxypropyl-β-cyclodextrin [30 mg/mL (150 mg/kg/day)] and 10 mM phosphate buffered saline) via oral gavage once daily for 26 weeks at a volume of 5 mL/kg. Animals were sacrificed at the end of the dosing phase (up to 15 animals/sex/group) or at the end of the 4-week recovery phase (5 animals/sex/group in dose groups given vehicle control article and 5 mg/kg/day the compound of Formula I). These animals were on a restricted diet due to the length of the study. Weights were measured once per week.

[4] = 5 mg/kg/day oral gavage daily for 6 months, p<0.05

EC50 [2] [nM]	stimulation of prostamide receptors on human pre-adipocytes [2]	potency relative to bimatoprost on human pre-adipocytes [2]	SMILES	change in impedance (agonist response) on human dermal papilla cells [1]	start of hair re-growth (female C57BL/6J mice)	full hair re-growth (female C57BL/6J mice)	weight gain, female rats ([3]; 0.3 mg/kg/day oral gavage daily for 6 months, p<0.05)	weight gain, female rats [3, 4]	weight gain, male rats [3, 4]	reversibility of the weight effect after administration ceased ([3]; 4-week recovery phase after 5 mg/kg/day)	start of the decrease in body weight gain ([3]; daily oral administration, male and female rats, persisted up to 183 days) [days]
784	stimulate prostamide receptors		CCNC(=O)CCC/C=C\C[C@@H]1[C@@H](/C=C/[C@@H](O)CCc2ccccc2)[C@H](O)C[C@@H]1O [Bimatoprost, bimatoprost, reference compound]	reduction in impedance; also recorded: shows activity	accelerates both time to start and full hair re-growth	accelerates both time to start and full hair re-growth					
11.7	stimulate prostamide receptors	relatively more potent than bimatoprost	NC(=O)CCC/C=C\C[C@@H]1[C@@H](/C=C/[C@@H](O)CCc2cc(Br)sc2Br)[C@H](O)C[C@@H]1O [Formula II]	do not show activity							
10.7	stimulate prostamide receptors	relatively more potent than bimatoprost	NC(=O)CCC/C=C\C[C@@H]1[C@@H](/C=C/[C@@H](O)CCc2cc(Cl)sc2Cl)[C@H](O)C[C@@H]1O [Formula I]	did not produce any detectable effect; also recorded: do not show activity	appears to boost the start to hair re-growth	does not result in full hair re-growth	inhibited weight gain	inhibited weight gain	inhibited weight gain	somewhat reversible	14
